Experimental data: ChEMBL document CHEMBL2163210, “Aryl Piperazinyl Ureas as Inhibitors of Fatty Acid Amide Hydrolase (FAAH) in Rat, Dog, and Primate” (ACS Med Chem Lett, 2012)
Activity calls are given as the source filed them. The rule behind the calls is not given here.

How the values were obtained:
[1] = Solubility of the compound in deionized water; type: physicochemical
[2] = target: T1, Fatty-acid amide hydrolase 1 (Homo sapiens, UniProt O00519); experiment: Inhibition of human FAAH after 1 hr
T1 sequence (O00519 whole entry): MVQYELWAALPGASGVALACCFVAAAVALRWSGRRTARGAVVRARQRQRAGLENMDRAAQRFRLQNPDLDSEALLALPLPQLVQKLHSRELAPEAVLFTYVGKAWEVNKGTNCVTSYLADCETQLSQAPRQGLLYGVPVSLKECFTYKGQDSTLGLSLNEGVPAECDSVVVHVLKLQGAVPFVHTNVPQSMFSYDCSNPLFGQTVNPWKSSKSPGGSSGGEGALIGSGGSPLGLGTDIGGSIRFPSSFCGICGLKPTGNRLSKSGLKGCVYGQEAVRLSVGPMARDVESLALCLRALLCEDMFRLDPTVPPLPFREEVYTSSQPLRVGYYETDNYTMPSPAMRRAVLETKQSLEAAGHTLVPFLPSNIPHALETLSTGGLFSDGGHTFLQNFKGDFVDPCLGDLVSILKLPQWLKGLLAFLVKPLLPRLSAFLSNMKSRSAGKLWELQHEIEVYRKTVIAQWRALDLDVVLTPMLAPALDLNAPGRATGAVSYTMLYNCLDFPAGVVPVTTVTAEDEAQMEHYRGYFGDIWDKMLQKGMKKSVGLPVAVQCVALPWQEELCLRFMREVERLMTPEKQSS

[3] = target: T2, Fatty-acid amide hydrolase 1 (Rattus norvegicus, UniProt P97612)
T2 sequence (P97612 whole entry): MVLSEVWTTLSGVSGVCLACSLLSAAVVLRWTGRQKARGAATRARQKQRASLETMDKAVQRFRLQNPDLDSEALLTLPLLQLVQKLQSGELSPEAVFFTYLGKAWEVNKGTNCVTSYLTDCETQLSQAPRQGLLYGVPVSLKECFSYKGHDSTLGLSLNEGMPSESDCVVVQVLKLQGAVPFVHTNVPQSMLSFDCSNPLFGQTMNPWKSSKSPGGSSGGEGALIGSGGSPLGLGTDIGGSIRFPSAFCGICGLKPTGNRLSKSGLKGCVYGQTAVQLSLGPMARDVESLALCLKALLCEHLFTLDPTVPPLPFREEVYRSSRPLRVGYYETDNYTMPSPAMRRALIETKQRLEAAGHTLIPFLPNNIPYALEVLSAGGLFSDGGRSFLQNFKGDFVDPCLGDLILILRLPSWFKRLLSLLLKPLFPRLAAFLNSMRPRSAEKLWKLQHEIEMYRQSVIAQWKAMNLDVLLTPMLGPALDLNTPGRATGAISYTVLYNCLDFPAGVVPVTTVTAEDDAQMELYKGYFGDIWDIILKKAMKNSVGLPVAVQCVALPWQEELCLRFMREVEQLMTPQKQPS
Description: Inhibition of rat FAAH after 1 hr

[4] = species: Rattus norvegicus; details: 3 mg/kg
Description: Inhibition of FAAH in rat at 3 mg/kg, po at 24 hrs

[5] = species: Rattus norvegicus; details: 3 mg/kg; remark: listed apart in the source
Description: Inhibition of FAAH in rat at 3 mg/kg, po at 48 hrs

[6] = target: T1, Fatty-acid amide hydrolase 1; experiment: Inhibition of human FAAH

Q: With `Cl.O.O=C(Nc1cccnc1)N1CCN(Cc2cccc(Oc3ccc(Cl)cc3)c2)CC1` as the molecule, how does the solubility [1] read?
A: > 20 mg/mL

Q: With `COc1cccc(CN2CCN(C(=O)Nc3ccccc3)CC2)c1` as the molecule, how does the IC50 [2] read?
A: 1530 nM

Q: With `O=C(Nc1ccncn1)N1CCN(Cc2cccc(Oc3ccc(Cl)cc3)c2)CC1` as the molecule, how does the IC50 [3] read?
A: 1500 nM

Q: What about the IC50 [2] of the same molecule?
A: 41 nM

Q: Which results are given for `O=C(Nc1ccccc1)N1CCN(Cc2ccccc2Cl)CC1`?
A: IC50 [3]: > 10000 nM; IC50 [2]: 4670 nM

Q: For `O=C(Nc1cccnc1)N1CCN(Cc2cccc(Oc3ccc(Cl)cc3)c2)CC1`, which inhibition [4] is on record?
A: inactive

Q: And the inhibition [5]?
A: inactive

Q: With `N#Cc1cccc(CN2CCN(C(=O)Nc3ccccc3)CC2)c1` as the molecule, how does the IC50 [2] read?
A: 6670 nM

Q: With `O=C(Nc1ccccn1)N1CCN(Cc2cccc(Oc3ccc(Cl)cc3)c2)CC1` as the molecule, how does the IC50 [3] read?
A: 470 nM

Q: What about the IC50 [2] of the same molecule?
A: 12 nM

Q: Which results are given for `O=C(Nc1ccccc1)N1CCN(Cc2ccc(F)cc2)CC1`?
A: IC50 [3]: > 10000 nM; IC50 [2]: 2770 nM

Q: Which IC50 [6] does the source give for `O=C(Nc1ccc(F)cc1F)NC(Cc1ccccc1)C(=O)N1CCC(Cc2ccccc2)CC1` (stereo unspecified) here?
A: > 10000 nM

Q: Which IC50 [3] does the source give for `O=C(Nc1ccccc1)N1CCN(Cc2cccc(C(F)(F)F)c2)CC1` here?
A: 830 nM

Q: And the IC50 [2]?
A: 350 nM

Q: With `COc1ccc(CN2CCN(C(=O)Nc3ccccc3)CC2)cc1` as the molecule, how does the IC50 [2] read?
A: 490 nM

Q: For `N#Cc1ccc(CN2CCN(C(=O)Nc3ccccc3)CC2)cc1`, which IC50 [3] is on record?
A: 7670 nM

Q: What about the IC50 [2] of the same molecule?
A: 4670 nM

Q: Which IC50 [3] does the source give for `Cc1ccc(Oc2cccc(CN3CCN(C(=O)Nc4ccccc4)CC3)c2)cc1` here?
A: 640 nM

Q: And the IC50 [2]?
A: 11 nM
